Measurements: the CheMixHub ionic liquid set
± gives the uncertainty stated by the source.

Test: xn = mol fraction of the nth substance listed

ClCCCl + CCCC[n+]1ccn(C)c1.O=S(=O)([N-]S(=O)(=O)C(F)(F)F)C(F)(F)F
Conditions | electrical conductivity [S/m]
294.5 K, 100 kPa, x2 = 0.02555 | 0.68 ± 0.07

CC(=O)[O-].CC[n+]1ccn(C)c1 + O
Conditions | electrical conductivity [S/m] | viscosity [mPa·s]
293.1 K, 101 kPa, x2 = 0.517 | – | 59.4 ± 3
293.1 K, 101 kPa, x2 = 0.578 | – | 51.1 ± 2.3
293.1 K, 101 kPa, x2 = 0.705 | – | 32.7 ± 1.5
293.15 K, 100 kPa, x1 = 0.7987 | 0.314 ± 0.0063 | –
293.15 K, 100 kPa, x1 = 1 | 0.223 ± 0.0045 | –
293.15 K, 100 kPa, x2 = 0.2088 | – | 138.9 ± 6.2
293.15 K, 101.3 kPa, x2 = 0 | 0.243 ± 0.001 | –
293.15 K, 101.3 kPa, x2 = 0.0774 | 0.327 ± 0.001 | –
293.15 K, 101.3 kPa, x2 = 0.1429 | 0.562 ± 0.001 | –
293.15 K, 101.3 kPa, x2 = 0.3065 | 1.016 ± 0.001 | –
293.15 K, 101.3 kPa, x2 = 0.4381 | 1.537 ± 0.001 | –
293.15 K, 101.3 kPa, x2 = 0.5278 | 2.03 ± 0.001 | –
293.15 K, 101.3 kPa, x2 = 0.7257 | 4.136 ± 0.001 | –
293.15 K, 101.3 kPa, x2 = 0.8083 | 5.417 ± 0.001 | –
293.15 K, 101.3 kPa, x2 = 0.8554 | 6.014 ± 0.001 | –
293.15 K, 101.3 kPa, x2 = 0.8891 | 5.902 ± 0.001 | –
293.15 K, 101.3 kPa, x2 = 0.9279 | 2.979 ± 0.001 | –
293.15 K, 101.3 kPa, x2 = 0.9308 | 2.707 ± 0.001 | –
293.15 K, 101.3 kPa, x2 = 0.9425 | 1.866 ± 0.001 | –
293.15 K, 101.3 kPa, x2 = 0.9559 | 1.121 ± 0.001 | –
293.15 K, 101.3 kPa, x2 = 0.9625 | 0.8 ± 0.001 | –
298.15 K, 101 kPa, x2 = 0 | – | 132.9 ± 6
298.15 K, 101 kPa, x2 = 0.0992 | – | 109.7 ± 4.8
298.15 K, 101 kPa, x2 = 0.266 | – | 85 ± 3
298.15 K, 101 kPa, x2 = 0.4207 | – | 59.5 ± 2.4
298.15 K, 101 kPa, x2 = 0.5408 | – | 44.4 ± 1.8
298.15 K, 101 kPa, x2 = 0.6135 | – | 35.9 ± 1.5
303.15 K, 100 kPa, x1 = 0.2003 | 2.37 ± 0.048 | –
303.15 K, 100 kPa, x1 = 0.7987 | 0.527 ± 0.011 | –
303.15 K, 100 kPa, x2 = 0.4 | – | 52.7 ± 1.6
303.15 K, 101 kPa, x2 = 0.132 | – | 84 ± 3
313.15 K, 100 kPa, x2 = 0.2088 | – | 47.2 ± 1.5
313.15 K, 100 kPa, x2 = 0.4 | – | 33.9 ± 1.1
313.15 K, 101 kPa, x2 = 0.188 | – | 46.7 ± 1.4
313.15 K, 101 kPa, x2 = 0.5408 | – | 23.49 ± 0.96
323.15 K, 100 kPa, x1 = 0.5984 | 1.63 ± 0.033 | –
323.15 K, 100 kPa, x2 = 0.2088 | – | 30.12 ± 0.97
323.15 K, 101 kPa, x2 = 0.132 | – | 33.1 ± 1.2
328.15 K, 101 kPa, x2 = 0.0992 | – | 27 ± 1.1
328.15 K, 101 kPa, x2 = 0.4207 | – | 17.5 ± 0.72
328.15 K, 101 kPa, x2 = 0.6805 | – | 9.43 ± 0.38
328.15 K, 101 kPa, x2 = 0.8134 | – | 5.3 ± 0.22
333.1 K, 101 kPa, x2 = 0.517 | – | 12.27 ± 0.7
333.1 K, 101 kPa, x2 = 0.578 | – | 11 ± 0.61
333.15 K, 100 kPa, x1 = 0.9481 | 1.31 ± 0.026 | –
333.15 K, 100 kPa, x1 = 1 | 1.31 ± 0.026 | –
333.15 K, 101 kPa, x2 = 0.188 | – | 21.4 ± 0.6
333.15 K, 101 kPa, x2 = 0.266 | – | 19.5 ± 0.6
343.15 K, 100 kPa, x1 = 1 | 1.75 ± 0.035 | –
343.15 K, 100 kPa, x2 = 0.2088 | – | 15.07 ± 0.48
343.15 K, 100 kPa, x2 = 0.4 | – | 12.24 ± 0.39
343.15 K, 100 kPa, x2 = 0.8023 | – | 3.8 ± 0.12
343.15 K, 101 kPa, x2 = 0.222 | – | 14.52 ± 0.61
343.15 K, 101 kPa, x2 = 0.5408 | – | 8.98 ± 0.37
343.15 K, 101 kPa, x2 = 0.6805 | – | 6.22 ± 0.25
353.15 K, 101 kPa, x2 = 0.102 | – | 12.96 ± 0.4
353.15 K, 101 kPa, x2 = 0.132 | – | 12.58 ± 0.41
353.15 K, 101 kPa, x2 = 0.188 | – | 11.89 ± 0.34
353.15 K, 101 kPa, x2 = 0.355 | – | 10.11 ± 0.28
363.15 K, 101 kPa, x2 = 0.072 | – | 10.28 ± 0.33
363.15 K, 101 kPa, x2 = 0.102 | – | 10.09 ± 0.31
363.15 K, 101 kPa, x2 = 0.132 | – | 9.82 ± 0.32
373.15 K, 101 kPa, x2 = 0.188 | – | 7.48 ± 0.22

CCOS(=O)(=O)[O-].CC[N+]1(C)CCCC1 + O
101 kPa
Conditions | viscosity [mPa·s]
313.15 K, x2 = 0 | 78 ± 13
313.15 K, x2 = 0.105 | 65 ± 10
318.15 K, x2 = 0 | 65 ± 10
318.15 K, x2 = 0.7542 | 8.9 ± 1.4
323.15 K, x2 = 0.7542 | 7.7 ± 1.2
333.15 K, x2 = 0.9652 | 0.99 ± 0.16
338.15 K, x2 = 0.6505 | 7.7 ± 1.2
338.15 K, x2 = 0.9652 | 0.98 ± 0.16
343.15 K, x2 = 0.6505 | 6.6 ± 1.1
343.15 K, x2 = 0.9652 | 0.98 ± 0.16

CCCC[n+]1ccn(C)c1.N#C[S-] + c1ccccc1
viscosity [mPa·s], 100 kPa
Conditions | x2 = 0 | x2 = 0.2334 | x2 = 0.258 | x2 = 0.3919 | x2 = 0.5094
298.15 K | 62.8 ± 3.2 | 33 ± 1.7 | 30.7 ± 1.6 | 20.1 ± 1.1 | 12.51 ± 0.69
308.15 K | 40.6 ± 2.1 | 22.5 ± 1.2 | 21.1 ± 1.1 | 14.29 ± 0.78 | 9.27 ± 0.52
318.15 K | 27.8 ± 1.5 | 16.2 ± 0.88 | 15.23 ± 0.83 | 10.64 ± 0.59 | 7.16 ± 0.42
328.15 K | 20.1 ± 1.1 | 12.19 ± 0.67 | 11.52 ± 0.64 | 8.25 ± 0.47 | 5.65 ± 0.34
